Patent publication US8685949B2, “Use of 25-hydroxy vitamin D3 to improve vitality of animals” (DSM IP Assets B.V., priority 2005, dated 2014)

Tests used:
[1] = test system: replacement gilts (Landrace×Large White) / parity-one sows; assay: Reproductive performance of parity-one sows fed 25-hydroxy-vitamin D3 (Experiment 1); type: in vivo, pig
Source text: (§1) In a commercial pig farm a total of 27 six-month-old replacement gilts (Landrace×Large White) were selected. There were two dietary treatments in different stages of the reproductive cycle (replacement gilt development, gestation, lactation). The control diet was the standard farm diet without the supplementation of 25-hydroxy-vitamin D3. The experimental diet was the standard farm diet supplemented with 25-hydroxy-vitamin D3 at 50 mcg per kg diet.
(§2) Fourteen (14) gilts were randomly selected and assigned to the control group and the other 13 gilts to the ROVIMIX® Hy•D® 1.25% group. Breeding started when the gilts were 7 months old. They were placed in the gestating stalls after breeding and remained there until 14 days before the expected date of farrowing. They were then weighed and moved to the farrowing stalls. Piglets were weaned at 28 days of age.
(§3) The following data were collected in the farrowing stalls in Experiments 1 and 2: • 1. Litter size at birth • a. Total pigs born • b. Pigs born alive • c. Stillborn pigs • d. Mummified fetuses • 2. Pig weight at birth • 3. Litter size at weaning • 4. Mortality • 5. Pig weight at weaning

[2] = test system: replacement gilts (Landrace×Large White) / parity-one sows; assay: Reproductive performance of parity-one sows fed 25-hydroxy-vitamin D3 (Experiment 2); type: in vivo, pig
Source text: as §1, with “In another” for “In a”, “of 43” for “of 27”
as §2, with “Twenty-two (22)” for “Fourteen (14)”, “21” for “13”
as §3

[3] = 50 mcg per kg diet, 28-day weaning

## C=C1CC[C@H](O)C/C1=C/C=C1\CCC[C@]2(C)[C@@H]([C@H](C)CCCC(C)(C)O)CC[C@@H]12 [25-hydroxy-vitamin D3]
[1]; 50 mcg per kg diet
  BWT = Body weight of pigs at birth: 1.45 kg
  LSBA = Litter size of number of pigs born alive: 9.77
[1]; [3]
  LSW = Litter size of number of pigs weaned at 28-day weaning: 9.46
[1]; birth to 28-day weaning, control 5.33 kg
  Piglet weight gain at 28-day weaning: 5.5 kg
[1]; result in words
  Weaning weights compared with control: not different from each other
[1]; standard farm diet supplemented with 25-hydroxy-vitamin D3 at 50 mcg per kg diet, gilt development, gestation, lactation
  LSBT = Litter size of total number of pigs at birth: 10.46
[1]; treated minus control
  Difference in litter size at weaning vs. control: +1.82
  Difference in pigs born alive vs. control: +1.84
  Difference in total pigs born vs. control: +1.46
[2]; 50 mcg per kg diet
  LSBA = Litter size of number of pigs born alive: 9.62
[2]; [3]
  LSW = Litter size of number of pigs weaned at 28-day weaning: 8.48
[2]; treated minus control
  Difference in litter size at weaning vs. control: +0.66
  Difference in pigs born alive vs. control: +0.44
